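Five concentrations, 48 hours, 96-well plates. GI50 is the concentration that inhibits growth by half. TGI: total growth inhibition.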
Key:
Assay in all cases: NCI anticancer screen, dose series, 48 h
[1] = system: MOLT-4 leukemia
[2] = system: MDA-MB-231 breast
[3] = system: SK-MEL-5 melanoma
[4] = system: K-562 leukemia
[5] = system: NCI-H23 lung
[6] = system: RXF 393 renal
[7] = system: UO-31 renal
[8] = system: HOP-92 NSCLC
[9] = system: MDA-MB-435
[10] = system: SF-539 CNS
[11] = system: OVCAR-5 ovarian
[12] = system: NCI/ADR-RES ovarian
[13] = system: UACC-62 melanoma
[14] = system: CCRF-CEM leukemia
[15] = system: HCC-2998 colon
[16] = system: HCT-116 colon
[17] = system: SN12C renal
[18] = system: HOP-62 NSCLC
[19] = system: MALME-3M melanoma
[20] = system: RPMI-8226 leukemia
[21] = system: SW-620 colon
[22] = system: NCI-H522 lung
[23] = system: M14 melanoma
[24] = system: A498 renal
[25] = system: NCI-H460 lung
[26] = system: A549 NSCLC
[27] = system: MCF7 breast
[28] = system: HT29 colon
[29] = system: SK-OV-3 ovarian
[30] = system: EKVX NSCLC
[31] = system: BT-549 breast
[32] = system: DU-145 prostate
[33] = system: SF-295 CNS
[34] = system: LOX IMVI melanoma
[35] = system: SK-MEL-28 melanoma
[36] = system: OVCAR-8 ovarian
[37] = system: T-47D breast
[38] = system: SNB-19 CNS
[39] = system: HCT-15 colon
[40] = system: UACC-257 melanoma
[41] = system: KM12 colon
[42] = system: SF-268 CNS
[43] = system: COLO 205 colon
[44] = system: NCI-H226 lung
[45] = system: 786-0 renal
[46] = system: HL-60(TB) leukemia
[47] = system: SK-MEL-2 melanoma
[48] = system: OVCAR-3 ovarian
[49] = system: HS 578T breast
[50] = system: PC-3 prostate
[51] = system: TK-10 renal
[52] = system: IGROV1 ovarian
[53] = system: SR leukemia
[54] = system: SNB-75 CNS
[55] = system: OVCAR-4 ovarian
[56] = system: U251 CNS

C=C1C(=O)O[C@H]2[C@H]1CC/C(COC(=O)/C=C/c1cccnc1)=C\CC[C@@]1(C)O[C@@H]21
GI50 [1]: 1.75 µM | TGI [1]: 4.9 µM | GI50 [2]: 2 µM | TGI [2]: 5.04 µM | GI50 [3]: 3.37 µM | TGI [3]: 12.6 µM | GI50 [4]: 1.04 µM | TGI [4]: 6.13 µM | GI50 [5]: 3.42 µM | TGI [5]: 15.4 µM | GI50 [6]: 0.75 µM | TGI [6]: 2.15 µM | GI50 [7]: 1.11 µM | TGI [7]: 2.51 µM | GI50 [8]: 0.853 µM | TGI [8]: 2.74 µM | GI50 [9]: 1.83 µM | TGI [9]: 5.14 µM | GI50 [10]: 1.5 µM | TGI [10]: 2.97 µM | GI50 [11]: 2.11 µM | TGI [11]: 5.94 µM | GI50 [12]: 3.3 µM | TGI [12]: 14.1 µM | GI50 [13]: 1.89 µM | TGI [13]: 5 µM | GI50 [14]: 0.338 µM | TGI [14]: 3.73 µM | GI50 [15]: 5.02 µM | TGI [15]: 17.1 µM | GI50 [16]: 0.371 µM | TGI [16]: 1.52 µM | GI50 [17]: 2.38 µM | TGI [17]: 7.92 µM | GI50 [18]: 11.5 µM | TGI [18]: 24.6 µM | GI50 [19]: 1.69 µM | TGI [19]: 3.63 µM | GI50 [20]: 1.9 µM | TGI [20]: 6.15 µM | GI50 [21]: 0.467 µM | TGI [21]: 2.35 µM | GI50 [22]: 1.33 µM | TGI [22]: 3.48 µM | GI50 [23]: 1.38 µM | TGI [23]: 3.23 µM | GI50 [24]: 4.11 µM | TGI [24]: 16.3 µM | GI50 [25]: 5.12 µM | TGI [25]: 20 µM | GI50 [26]: 9.86 µM | TGI [26]: 23.6 µM | GI50 [27]: 0.748 µM | TGI [27]: 2.72 µM | GI50 [28]: 2.23 µM | TGI [28]: 6.03 µM | GI50 [29]: 16.4 µM | TGI [29]: 53 µM | GI50 [30]: 3.28 µM | TGI [30]: 14.3 µM | GI50 [31]: 1.18 µM | TGI [31]: 2.68 µM | GI50 [32]: 1.39 µM | TGI [32]: 3.01 µM | GI50 [33]: 10.6 µM | TGI [33]: 23.1 µM | GI50 [34]: 1.55 µM | TGI [34]: 2.93 µM | GI50 [35]: 1.26 µM | TGI [35]: 2.61 µM | GI50 [36]: 3.85 µM | TGI [36]: 13.9 µM | GI50 [37]: 1.88 µM | TGI [37]: 5.12 µM | GI50 [38]: 9.05 µM | TGI [38]: 28.4 µM | GI50 [39]: 1.11 µM | TGI [39]: 2.71 µM | GI50 [40]: 1.73 µM | TGI [40]: 3.54 µM | GI50 [41]: 3.47 µM | TGI [41]: 13.2 µM | GI50 [42]: 4.63 µM | TGI [42]: 18.4 µM | GI50 [43]: 1.06 µM | TGI [43]: 2.82 µM | GI50 [44]: 2.68 µM | TGI [44]: 9.98 µM | GI50 [45]: 1.1 µM | TGI [45]: 2.58 µM | GI50 [46]: 0.741 µM | TGI [46]: 3.7 µM | GI50 [47]: 3.88 µM | TGI [47]: 12.7 µM | GI50 [48]: 0.494 µM | TGI [48]: 1.76 µM | GI50 [49]: 4.22 µM | TGI [49]: 36 µM | GI50 [50]: 8.28 µM | TGI [50]: 22.1 µM | GI50 [51]: 2.01 µM | TGI [51]: 4.06 µM | GI50 [52]: 2.07 µM | TGI [52]: 7.86 µM | GI50 [53]: 1.57 µM | TGI [53]: 7.01 µM | GI50 [54]: 11.3 µM | TGI [54]: 24.1 µM | GI50 [55]: 3.96 µM | TGI [55]: 16.9 µM | GI50 [56]: 5.74 µM | TGI [56]: 18.3 µM
